From ChEMBL document CHEMBL1157236, “A reassignment of (-)-mycothiazole and the isolation of a related diol” (2006)

Columns and labels:
[1] = tested on: NCI/ADR-RES; assay: Growth inhibition of human NCI/ADR-RES cells; assay type: functional
[2] = tested on: ACHN; assay: Growth inhibition of human ACHN cells; assay type: functional
[3] = tested on: COLO 205; assay: Growth inhibition of human COLO205 cells; assay type: functional
[4] = tested on: DU-145; assay: Growth inhibition of human DU145 cells; assay type: functional; settings: DU-145, read-out: pGI50 (converted)
[5] = Growth inhibition of human […] cells; assay type: functional
[6] = tested on: CCRF-CEM; assay: Growth inhibition of human CCRF-CEM cells; assay type: functional
[7] = tested on: MCF7; assay: Growth inhibition of human MCF7 cells; assay type: functional; settings: MCF7, read-out: pGI50 (converted)
[8] = tested on: NCI-H460; assay: Growth inhibition of human NCI-H460 cells; assay type: functional
[9] = tested on: Malme-3M; assay: Growth inhibition of human MALME3M cells; assay type: functional; settings: read-out: pGI50 (converted)
[10] = tested on: SK-MEL-28; assay: Growth inhibition of human SK-MEL-28 cells; assay type: functional
[11] = Growth inhibition of human HL60(TB) cells; assay type: functional, HL-60(TB); settings: HL-60
[12] = tested on: 786-0; assay: Growth inhibition of human 786-0 cells; assay type: functional; settings: 786-0, read-out: pGI50 (converted)
[13] = tested on: MOLT-4; assay: Growth inhibition of human MOLT4 cells; assay type: functional
[14] = tested on: DLD-1; assay: Growth inhibition of human DLD1 cells; assay type: functional
[15] = tested on: M19-MEL; assay: Growth inhibition of human M19-MEL cells; assay type: functional
[16] = tested on: A498; assay: Growth inhibition of human A498 cells; assay type: functional
[17] = tested on: SNB-75; assay: Growth inhibition of human SNB75 cells; assay type: functional
[18] = tested on: SN12C; assay: Growth inhibition of human SN12C cells; assay type: functional; settings: read-out: pGI50 (converted)
[19] = tested on: LOX IMVI; assay: Growth inhibition of human LOX IMVI cells; assay type: functional
[20] = tested on: NCI-H226; assay: Growth inhibition of human NCI-H226 cells; assay type: functional; settings: NCI-H226, read-out: pGI50 (converted)
[21] = tested on: SF-295; assay: Growth inhibition of human SF295 cells; assay type: functional
[22] = tested on: A549; assay: Growth inhibition of human A549 cells; assay type: functional
[23] = tested on: DMS-273; assay: Growth inhibition of human DMS273 cells; assay type: functional
[24] = tested on: KM-20L2; assay: Growth inhibition of human KM20L2 cells; assay type: functional
[25] = tested on: MDA-N; assay: Growth inhibition of human MDA-N cells; assay type: functional
[26] = tested on: UO-31; assay: Growth inhibition of human UO31 cells; assay type: functional
[27] = tested on: IGROV-1; assay: Growth inhibition of human IGROV1 cells; assay type: functional
[28] = tested on: M14; assay: Growth inhibition of human M14 cells; assay type: functional
[29] = tested on: U-251; assay: Growth inhibition of human U251 cells; assay type: functional
[30] = tested on: BT-549; assay: Growth inhibition of human BT549 cells; assay type: functional
[31] = tested on: TK-10; assay: Growth inhibition of human TK10 cells; assay type: functional; settings: TK-10, read-out: pGI50 (converted)
[32] = tested on: SF-539; assay: Growth inhibition of human SF539 cells; assay type: functional; settings: SF-539, read-out: pGI50 (converted)
[33] = tested on: T47D; assay: Growth inhibition of human T47D cells; assay type: functional; settings: read-out: pGI50 (converted)
[34] = tested on: NCI-H522; assay: Growth inhibition of human NCI-H522 cells; assay type: functional
[35] = tested on: HOP-62; assay: Growth inhibition of human HOP62 cells; assay type: functional; settings: HOP-62, read-out: pGI50 (converted)
[36] = Growth inhibition of human OVACR3 cells; assay type: functional
[37] = tested on: NCI-H322M; assay: Growth inhibition of human NCI-H322M cells; assay type: functional
[38] = Growth inhibition of human RXF631 cells; assay type: functional; settings: RXF 631, read-out: pGI50 (converted)
[39] = tested on: DMS-114; assay: Growth inhibition of human DMS114 cells; assay type: functional
[40] = tested on: CAKI-1; assay: Growth inhibition of human CAKI1 cells; assay type: functional
[41] = tested on: EKVX; assay: Growth inhibition of human EKVX cells; assay type: functional
[42] = tested on: HT-29; assay: Growth inhibition of human HT29 cells; assay type: functional
[43] = tested on: NCI-H23; assay: Growth inhibition of human NCI-H23 cells; assay type: functional
[44] = Growth inhibition of human LXFL529 cells; assay type: functional; settings: LXFL 529
[45] = tested on: SK-MEL-2; assay: Growth inhibition of human SK-MEL-2 cells; assay type: functional; settings: SK-MEL-2, read-out: pGI50 (converted)
[46] = tested on: UACC-257; assay: Growth inhibition of human UACC257 cells; assay type: functional
[47] = tested on: SK-MEL-5; assay: Growth inhibition of human SK-MEL-5 cells; assay type: functional
[48] = tested on: HCT-15; assay: Growth inhibition of human HCT15 cells; assay type: functional
[49] = tested on: SF-268; assay: Growth inhibition of human SF268 cells; assay type: functional
[50] = tested on: HCT-116; assay: Growth inhibition of human HCT116 cells; assay type: functional
[51] = tested on: SK-OV-3; assay: Growth inhibition of human SK-OV-3 cells; assay type: functional
[52] = tested on: RXF 393; assay: Growth inhibition of human […] cells; assay type: functional
[53] = tested on: HCC 2998; assay: Growth inhibition of human HCC2998 cells; assay type: functional; settings: HCC 2998, read-out: pGI50 (converted)
[54] = Growth inhibition of human OVACR4 cells; assay type: functional
[55] = tested on: K562; assay: Growth inhibition of human K562 cells; assay type: functional
[56] = tested on: PC-3; assay: Growth inhibition of human PC3 cells; assay type: functional; settings: PC-3, read-out: pGI50 (converted)
[57] = tested on: SNB-19; assay: Growth inhibition of human SNB19 cells; assay type: functional; settings: SNB-19, read-out: pGI50 (converted)
[58] = Growth inhibition of human OVACR5 cells; assay type: functional; settings: OVACR5, read-out: pGI50 (converted)
[59] = tested on: MDA-MB-435; assay: Growth inhibition of human MDA-MB-435 cells; assay type: functional
[60] = tested on: KM12; assay: Growth inhibition of human KM12 cells; assay type: functional
[61] = tested on: Hs-578T; assay: Growth inhibition of human HS578T cells; assay type: functional; settings: read-out: pGI50 (converted)
[62] = tested on: HOP-92; assay: Growth inhibition of human HOP92 cells; assay type: functional
[63] = Growth inhibition of human OVACR8 cells; assay type: functional
[64] = tested on: SR; assay: Growth inhibition of human SR cells; assay type: functional
[65] = tested on: SW-620; assay: Growth inhibition of human SW620 cells; assay type: functional
[66] = tested on: XF498; assay: Growth inhibition of human XF498 cells; assay type: functional
[67] = tested on: UACC-62; assay: Growth inhibition of human UACC62 cells; assay type: functional
[68] = tested on: L1210; assay: Selectivity for mouse C38 cells over mouse L1210 cells; assay type: functional

C=CC/C=C\Cc1csc(C(C)(C)[C@H](O)C/C=C\C(=C)CCNC(=O)OC)n1 [MYCOTHIAZOLE]
GI50 [1]: 79.4 µM
GI50 [2]: 50.1 µM
GI50 [3]: 63.1 µM
GI50 [4]: > 100 µM
GI50 [5]: 31.6 µM
GI50 [6]: 31.6 µM
GI50 [7]: > 100 µM
GI50 [8]: 31.6 µM
GI50 [9]: > 100 µM
GI50 [10]: 79.4 µM
GI50 [11]: 10 µM
GI50 [12]: > 100 µM
GI50 [13]: 39.8 µM
GI50 [14]: 79.4 µM
GI50 [15]: 25.1 µM
GI50 [16]: 63.1 µM
GI50 [17]: 39.8 µM
GI50 [18]: > 100 µM
GI50 [19]: 39.8 µM
GI50 [20]: > 100 µM
GI50 [21]: 1.26 µM
GI50 [22]: 39.8 µM
GI50 [23]: 3.16 µM
GI50 [24]: 50.1 µM
GI50 [25]: 50.1 µM
GI50 [26]: 79.4 µM
GI50 [27]: 31.6 µM
GI50 [28]: 39.8 µM
GI50 [29]: 79.4 µM
GI50 [30]: 3.16 µM
GI50 [31]: > 100 µM
GI50 [32]: > 100 µM
GI50 [33]: > 100 µM
GI50 [34]: 20 µM
GI50 [35]: > 100 µM
GI50 [36]: 25.1 µM
GI50 [37]: 15.8 µM
GI50 [38]: > 100 µM
GI50 [39]: 0.0126 µM
GI50 [40]: 63.1 µM
GI50 [41]: 25.1 µM
GI50 [42]: 50.1 µM
GI50 [43]: 0.251 µM
GI50 [44]: 20 µM
GI50 [45]: > 100 µM
GI50 [46]: 1.58 µM
GI50 [47]: 1.26 µM
GI50 [48]: 39.8 µM
GI50 [49]: 79.4 µM
GI50 [50]: 0.631 µM
GI50 [51]: 79.4 µM
GI50 [52]: 63.1 µM
GI50 [53]: > 100 µM
GI50 [54]: 63.1 µM
GI50 [55]: 0.794 µM
GI50 [56]: > 100 µM
GI50 [57]: > 100 µM
GI50 [58]: > 100 µM
GI50 [59]: 50.1 µM
GI50 [60]: 63.1 µM
GI50 [61]: > 100 µM
GI50 [62]: 20 µM
GI50 [63]: 79.4 µM
GI50 [64]: 0.501 µM
GI50 [65]: 25.1 µM
GI50 [66]: 50.1 µM
GI50 [67]: 39.8 µM
Selectivity Index [68]: 3
